From PubChem BioAssay AID256 (DTP/NCI, 2004)
Values joined by “and” are separate entries in the source; they are usually repeats but may differ in a detail not shown here. Equal entries are not always repeated. Inconclusive results and toxic doses are left out. Rule for the calls: active = survival T/C of 150% or more; inactive = T/C below 125% in these data.

System: CD2F1 mice, L1210 leukemia ip, survival T/C
Assay: NCI In Vivo Anticancer Drug Screen. Data for tumor model L1210 Leukemia (intraperitoneal) in CD2F1 (CDF1) mice
Conditions: higher = longer survival
How it was run: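 Compound-dosed mice with transplantable tumor versus matched vehicle controls; endpoint ratio T/C reported.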

[1] = endpoint: mean survival time, dose: 50.0 mg/kg/injection, schedule: Q01DX009 (ip), vehicle: saline with Tween-80
[2] = endpoint: mean survival time, dose: 12.5 mg/kg/injection, schedule: Q01DX009 (ip), vehicle: saline with Tween-80
[3] = endpoint: mean survival time, dose: 12.5 mg/kg/injection, schedule: Q01DX009 (ip), vehicle: saline
[4] = endpoint: mean survival time, dose: 25.0 mg/kg/injection, schedule: Q01DX009 (ip), vehicle: saline with Tween-80
[5] = endpoint: mean survival time, dose: 25.0 mg/kg/injection, schedule: Q01DX009 (ip), vehicle: saline
[6] = endpoint: mean survival time, dose: 50.0 mg/kg/injection, schedule: Q01DX009 (ip), vehicle: saline
[7] = endpoint: mean survival time, dose: 100.0 mg/kg/injection, schedule: Q01DX009 (ip), vehicle: saline with Tween-80

Measured: T/C

O=C(O)C1OC(Sc2ncnc3nc[nH]c23)C(O)C(O)C1O (configuration not stated)
inactive: endpoint: median survival time, dose: 25.0 mg/kg/injection, schedule: Q01DX005 (ip), vehicle: saline 98 % of control | endpoint: median survival time, dose: 50.0 mg/kg/injection, schedule: Q01DX005 (ip), vehicle: saline 108 % of control | endpoint: median survival time, dose: 100.0 mg/kg/injection, schedule: Q01DX005 (ip), vehicle: saline 109 % of control | endpoint: median survival time, dose: 200.0 mg/kg/injection, schedule: Q01DX005 (ip), vehicle: saline 120 % of control and 112 % of control | endpoint: median survival time, dose: 400.0 mg/kg/injection, schedule: Q01DX005 (ip), vehicle: saline 115 % of control

CN(C)N=Nc1ccccc1[N+](=O)[O-]
inactive: endpoint: mean survival time, dose: 53.0 mg/kg/injection, schedule: Q01DX001 (ip), vehicle: saline 105 % of control | endpoint: mean survival time, dose: 53.0 mg/kg/injection, schedule: Q01DX009 (ip), vehicle: saline 104 % of control | endpoint: mean survival time, dose: 79.0 mg/kg/injection, schedule: Q01DX001 (ip), vehicle: saline 105 % of control | endpoint: mean survival time, dose: 79.0 mg/kg/injection, schedule: Q01DX009 (ip), vehicle: saline 109 % of control | endpoint: mean survival time, dose: 119.0 mg/kg/injection, schedule: Q01DX001 (ip), vehicle: saline 108 % of control | endpoint: mean survival time, dose: 119.0 mg/kg/injection, schedule: Q01DX009 (ip), vehicle: saline 118 % of control | endpoint: mean survival time, dose: 178.0 mg/kg/injection, schedule: Q01DX001 (ip), vehicle: saline 115 % of control | endpoint: mean survival time, dose: 600.0 mg/kg/injection, schedule: Q01DX001 (ip), vehicle: saline 118 % of control

O=C(/C=C\c1ccccc1)/C=C/c1ccccc1
inactive: endpoint: mean survival time, dose: 177.0 mg/kg/injection, schedule: Q01DX001 (ip), vehicle: other 96 % of control | endpoint: mean survival time, dose: 267.0 mg/kg/injection, schedule: Q01DX001 (ip), vehicle: other 92 % of control | endpoint: mean survival time, dose: 400.0 mg/kg/injection, schedule: Q01DX001 (ip), vehicle: other 104 % of control | endpoint: mean survival time, dose: 600.0 mg/kg/injection, schedule: Q01DX001 (ip), vehicle: other 107 % of control

COc1cccc(N=Nc2c(N)nc(N)nc2N)c1
inactive: [1] 97 % of control

ClC1(Cl)OC(Cl)(Cl)C(Cl)(Cl)OC1(Cl)Cl
inactive: endpoint: mean survival time, dose: 50.0 mg/kg/injection, schedule: Q04DX003 (ip), vehicle: other 95 % of control | endpoint: mean survival time, dose: 100.0 mg/kg/injection, schedule: Q04DX003 (ip), vehicle: other 91 % of control | endpoint: mean survival time, dose: 200.0 mg/kg/injection, schedule: Q04DX003 (ip), vehicle: other 97 % of control

O=C1C(=O)c2ccc(Br)cc2C(O)=C1/C=C/c1ccccc1
inactive: endpoint: mean survival time, dose: 50.0 mg/kg/injection, schedule: Q01DX001 (ip), vehicle: saline 104 % of control | endpoint: mean survival time, dose: 100.0 mg/kg/injection, schedule: Q01DX001 (ip), vehicle: saline 101 % of control | endpoint: mean survival time, dose: 200.0 mg/kg/injection, schedule: Q01DX001 (ip), vehicle: saline 103 % of control

CN(C)[C@@H]1C(=O)C(C(N)=O)=C(O)[C@@]2(O)C(=O)C3=C(O)c4c(O)ccc(Cl)c4[C@@](C)(O)[C@H]3C[C@@H]12
inactive: [2] 98 % of control | [3] 107 % of control | [4] 97 % of control | [5] 101 % of control | [1] 93 % of control and 108 % of control | [6] 103 % of control | [7] 104 % of control and 111 % of control | endpoint: mean survival time, dose: 100.0 mg/kg/injection, schedule: Q01DX009 (ip), vehicle: saline 113 % of control | endpoint: mean survival time, dose: 200.0 mg/kg/injection, schedule: Q01DX009 (ip), vehicle: saline with Tween-80 102 % of control

CCN(CC)CCC(=O)c1ccccc1
inactive: endpoint: mean survival time, dose: 3.12 mg/kg/injection, schedule: Q01DX009 (ip), vehicle: saline with Tween-80 100 % of control | endpoint: mean survival time, dose: 3.12 mg/kg/injection, schedule: Q01DX009 (ip), vehicle: suspension in saline 96 % of control | endpoint: mean survival time, dose: 6.25 mg/kg/injection, schedule: Q01DX009 (ip), vehicle: saline with Tween-80 103 % of control | endpoint: mean survival time, dose: 6.25 mg/kg/injection, schedule: Q01DX009 (ip), vehicle: suspension in saline 95 % of control | [2] 102 % of control | [3] 90 % of control | endpoint: mean survival time, dose: 12.5 mg/kg/injection, schedule: Q01DX009 (ip), vehicle: suspension in saline 96 % of control | [4] 103 % of control | [5] 94 % of control | endpoint: mean survival time, dose: 25.0 mg/kg/injection, schedule: Q01DX009 (ip), vehicle: suspension in saline 106 % of control | [1] 101 % of control | [6] 92 % of control | endpoint: mean survival time, dose: 50.0 mg/kg/injection, schedule: Q01DX009 (ip), vehicle: suspension in saline 106 % of control | [7] 93 % of control
